Entries after “also recorded” stand apart in the source; their conditions may differ.
Experiments:
[1] = system: transcortical defects in rat femurs; assay: Titanium enclosure model of bone regeneration (histomorphometry of cortical defect); format: in vivo; settings: for percentage of new bone formation in cortical defect area (bone growth): rat femur, control value 40%
Experimental: (§1) In one study, bone regeneration and gene expression was assayed using a titanium enclosure model, as described in Example 1 (FIG. 1). Briefly, transcortical defects were created surgically in rat femurs. A collagen sponge, loaded with a varying concentration of Δ^12PGJ2 was applied to each defect. The collagen sponge was secured by placement of the titanium enclosure, which served as a rigid and fixed geometry cell exclusion barrier. Animals were sacrificed at 10 days and bone tissue sections were prepared for immunohistology to quantify growth factor expression. Tissue sections from treated animals were also analyzed morphometrically to assess de novo bone formation of the defect areas.
Titanium enclosures were prepared by trimming and carving 0.1 mm thickness titanium plate to half cylindrical shape which had 8×1.5×2 mm in length, height, and width respectively. Both ends of the enclosures were sealed with surgical grade, self curing acrylic resin to form a closed half cylinder which is open only in the sagittal direction. The enclosures were then washed in an ultrasonic cleaning machine and autoclaved to sterilize and to create a titanium oxide surface prior to use.
Twenty-eight male Wistar rats, aged 8 weeks and weighing 350-400 g were randomly separated into 4 groups that received varying doses of Δ^12PGJ2. Two rats were housed in each cage with free access to normal laboratory diet and water ad libitum. After 7 days of acclimatization, the animals were initially anesthetized intramuscularly with Sodium pentobarbital (Nembutal sodium solution, Abbott Laboratories, Chicago, Ill.) at a dosage of 75 mg/kg of body weight. The area of intended surgery was shaved and disinfected using 90% ethyl alcohol. After pupillary reflex was inhibited, a 3-cm incision was made through skin and muscle parallel to the long axis over the dorsal aspect of both left and right femoral bone. The periosteum was incised and removed from the surface of the bone, creating an exposed area of sufficient size to place the open face of the cylindrical enclosure directly on the bone surface. Subsequently, a 5×1.5 mm transcortical defect was made through the cortical bone into the bone marrow at the midshaft region using round and cylindrical steel burs and a low speed micromotor machine. A sufficiently sterile 0.9% saline solution was used as a coolant to avoid heat-induced necrosis of surrounding bone. The femoral bone on one side of the animal was randomly chosen for treatment with Δ^12PGJ2, and the contralateral side was used as a control. FIG. 1 depicts a schematic diagram of the titanium enclosure model.
(§2) Δ^12PGJ2 (Cayman Chemical, Ann Arbor, Mich.) was diluted in 0.9% NaCl, pH 7.2, to the final concentration of 1×10^−3, 1×10^−5, 1×10^−7, and 1×10^−9 M. An absorbable collagen sponge (Colla-Tec Inc. Plainsboro, N.J.) 5×1.5 mm dimensions was used as a carrier. 10 μl of each Δ^12PGJ2 solution were loaded into the collagen carrier and then the carrier was placed inside the half cylindrical titanium enclosure. This provided a dosage of 3.0 μg, 30 ng, 0.3 ng, and 3 pg Δ^12PGJ2 in each of five standardized defects. The remaining volume inside the enclosure was filled with blood collected from the defect. The enclosure was inverted, placed over the defect, and stabilized by circumosseous wiring around the femoral bone using #010 orthodontic wire. […] The animals were monitored every day after surgery for indication of post-operative reactions. […]

PDGF-B = assay: Immunohistochemistry of PDGF-B expression in the titanium enclosure model; format: in vivo, rat; settings: for PDGF-B expression in the area of the defect: 10 days
Experimental: as §1, §2
The area and average intensity of positive immunostaining were measured using a microscope connected to a computerized video digital system (JAVA video analysis software, Jandel Scientific, Corte Madera, Calif.) at a magnification of 100×. Three to five sections were analyzed for each femur and the data from all sections were pooled to reflect a mean value for each bone defect. […]

BMP-6 = assay: Immunohistochemistry of BMP-6 expression in the titanium enclosure model; format: in vivo, rat; settings: no concentration stated
Experimental: as §1
(§3) Δ^12PGJ2 (Cayman Chemical, Ann Arbor, Mich.) was diluted in 0.9% NaCl, pH 7.2, to the final concentration of 1×10^−3, 1×10^−5, 1×10^−7, and 1×10^−9 M. An absorbable collagen sponge (Colla-Tec Inc. Plainsboro, N.J.) 5×1.5 mm dimensions was used as a carrier. […] The animals were monitored every day after surgery for indication of post-operative reactions. […]
(§4) The area and average intensity of positive immunostaining were measured using a microscope connected to a computerized video digital system (JAVA video analysis software, Jandel Scientific, Corte Madera, Calif.) at a magnification of 100×. […]

PDGF-A = assay: Immunohistochemistry of PDGF-A expression in the titanium enclosure model; format: in vivo, rat; settings: no concentration stated
Experimental: as §1, §3, §4

BMP-2 = assay: Immunohistochemistry of BMP-2 expression in the titanium enclosure model; format: in vivo, rat; settings: no concentration stated
Experimental: as §1, §3, §4

[2] = system: titanium implants placed in the rat femur; assay: Titanium implant model of bone regeneration (bone height and width around implant); format: in vivo; settings: for bone growth (height and width) around implant: versus control vehicle
Experimental: In a second study, titanium implants were placed in the rat femurto mimic human dental implant placement, as described in Example 2. Bone healing and regeneration around the implants was assessed following treatment with implants loaded with Δ^12PGJ2.
Six male Wistar rats were anesthetized as described in Example 1 for the placement of 4 titanium implants in each animal. Implants were fabricated from surgical grade titanium 1.5 mm in diameter, 2.5 mm in length with machined threads, cleaned bysonication and autoclaved prior to use. Implant sites were prepared with cooling using a dental high speed hand piece. One test and one control implant site were prepared for placement of 5 μl of test or control solution, followed by implant placement. Control implants comprised vehicle only (10% carboxymethylcellulose in normal saline). For test sites, 10^−3M or 10^−5M Δ^12PGJ2 was applied to the site following placement of the implant. Animals were monitored for 3 or 8 weeks following implantation.
Femur bones were collected and fixed in 4% paraformaldehyde, 0.1 M phosphate buffer. Samples were cleared through sequential washings of graded alcohol followed by xylene. Bones were embedded in methacrylate and sectioned with a low speed diamond saw and stained with Toluidine Blue. Two different quantitative measurements were derived from each implant to measure the amount of bone regenerated around each implant. These measurements represent the bone height from the endosteal surface to the most apical bone contact area of the implant and the mean width of that same bone calculated using three measurement references, including the endosteal surface (ES), ES +130 microns, and ES +260 microns.

[3] = treated versus control injuries, 10^−3M or 10^−5M applied to site

SMILES: CCCCCC(O)CC=C1C(=O)C=CC1C/C=C\CCCC(=O)O (stereo not drawn) [Δ^12PGJ2, Δ^12-13,14-dihydro-9-deoxy-Δ^9-prostaglandin D2]
- bone volume following administration (FIG. 2) [1]: increase in bone volume
- percentage of new bone formation in cortical defect area (bone growth) ([1]; 30 ng dose in collagen sponge, 10 days): 53 % volume
- increase in total bone area following treatment ([1]; 3.0 μg and 30 ng doses versus control, 10 days): ~33%
- percentage of new bone formation in cortical defect area (bone growth) ([1]; 3.0 μg dose in collagen sponge, 10 days): 54 % volume
- percentage of new bone formation, dose dependence ([1]; doses 3 pg to 3.0 μg, 10 days): increased in a dose-dependent manner
- PDGF-B expression in the area of the defect (PDGF-B; 10^−3M): significant increase
- PDGF-B expression in the area of the defect (PDGF-B; 10^−5M): significant increase
- PDGF-B expression / induction (general statement) (PDGF-B; no concentration stated): increase in PDGF-B expression; also recorded: potent and dose-dependent inducer
- BMP-6 expression / induction (BMP-6): increase in BMP-6 expression; also recorded: potent and dose-dependent inducer
- PDGF-A induction (PDGF-A): potent and dose-dependent inducer
- BMP-2 induction (BMP-2): potent and dose-dependent inducer
- bone growth (height and width) around implant ([2]; 3 weeks after administration): Significantly increased bone growth
- bone growth (height and width) around implant ([2]; 8 weeks after administration): Significantly increased bone growth
- bone height around implant [2, 3]: significantly increased
- bone width around implant [2, 3]: significantly increased
